Laboratory results taken from patent US20060172004A1, “Oral compositions for the stimulation of gastric acid secretion comprising pentagastrin” (priority 2003, published 2006).
Like-named read-outs stand apart in the source and are kept apart here.

Assays:
[1] = biological target: T1, gastrin receptor (CCKB) (Rattus norvegicus, UniProt P30553); experiment: Effect of CCKB antagonist on PG-mediated gastric acid secretion in pylorus-ligated rats; assay type: in vivo
T1 construct: from tissue; host or cells: stomach of live anesthetized pylorus-ligated rats (in vivo)
T1 sequence (P30553 1-452): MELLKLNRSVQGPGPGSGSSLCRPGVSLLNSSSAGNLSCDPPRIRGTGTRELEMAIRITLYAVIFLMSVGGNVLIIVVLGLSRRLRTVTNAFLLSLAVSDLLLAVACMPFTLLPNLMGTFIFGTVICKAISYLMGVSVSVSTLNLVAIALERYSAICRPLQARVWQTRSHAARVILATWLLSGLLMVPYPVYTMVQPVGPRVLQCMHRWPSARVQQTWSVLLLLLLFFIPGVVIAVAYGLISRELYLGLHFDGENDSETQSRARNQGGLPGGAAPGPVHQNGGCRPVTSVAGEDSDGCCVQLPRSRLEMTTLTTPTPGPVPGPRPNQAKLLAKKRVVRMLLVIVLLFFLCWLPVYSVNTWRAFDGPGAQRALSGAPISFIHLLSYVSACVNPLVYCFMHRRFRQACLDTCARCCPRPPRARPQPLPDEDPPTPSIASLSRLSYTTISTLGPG
Experimental: As PG is a gastrin hormone homologue, its local effect is thought to be mediated via gastrin pathway, i.e. an activation of gastrin receptor (CCKB). To test this hypothesis the effect of the specific CCKB antagonist (Itriglumide) on PG-mediated acid secretion in rats was examined.
In this study, rats were anesthetized with Ketamine and Domitor mixture and provided with 20 mg/kg of Itriglumide that was administered intraduodenally (i.d.). Following 15 min, gastric pylorus was ligated and 300 μg/kg PG was administered into the stomach (i.g.). After 30 min, gastric juice was obtained, centrifuged and the volume and pH of the supernatants were measured. The acid concentration (titratable acidity) was analyzed by titration the gastric juice samples with NaOH and total acid output expressed in […] HCl was calculated by multiplying the sample volume by the acid concentration.

[2] = system: gastric acid secretion; experiment: Gastric pH and acid output after tetragastrin s.c. or per os in pylorus-ligated rats; assay type: in vivo, Wister rats; conditions: for acid secretion: 30 min, titration with NaOH to pH 7; for gastric pH: gastric juice collected 30 min after treatment
Experimental: The effect of tetragastrin (Trp-Met-Asp-PheNH2) administered orally in stimulating gastric acid secretion was examined. […] Tetragastrin was administered either s.c. (25 μg/kg) or per os (206 μg/kg) and gastric juice was collected 30 min following treatment. Acid concentration was measured by titration the samples with NaOH to pH=7. Results are expressed as means±SEM of 3-4 animals.

[3] = for radioactivity in systemic circulation: oral dose 50×10^6 CPM; for Radioactivity in systemic circulation % of Total Radioactivity/Dose: 50 μg/kg
Experimental: The bioavailability of PG in rats following oral administration of ^3H-labeled PG was studied. Male Wister Hanover rats were anaesthetized and catheters were positioned in the jugular vein for blood sampling. Rats were treated orally with ^3H-PG at a dose of 50 μg/kg (50×10^6 CPM per dose) and blood samples were drawn at 5, 15 and 30 minutes. The radioactivity in blood samples at each time point was determined by a β-counter.

Cc1cc(C)c(NC(=O)C[C@H](CC(=O)O)c2cccc3ccccc23)c(C(=O)N2CCC3(CCCC3)CC2)c1 [CCKB ant., Itriglumide]
Acid Output MEAN ([1]; CCKB ant. i.d. 20 mg/kg alone, pylorus-ligated rats): 15.24 pEq HCl | effect of antagonist on PG-mediated gastric acid secretion ([1]; intraduodenal 20 mg/kg, PG 300 μg/kg i.g., rats): inhibits the local effect of PG on gastric acid secretion

CSCC[C@H](NC(=O)[C@@H](N)Cc1c[nH]c2ccccc12)C(=O)N[C@@H](CC(=O)O)C(=O)N[C@@H](Cc1ccccc1)C(N)=O [tetragastrin, Trp-Met-Asp-PheNH2]
local stimulation of gastric acid secretion compared to PG ([2]; equimolar dose, oral): less prominent as compared to PG | acid secretion ([2]; per os 206 μg/kg): elevated acid secretion | gastric pH ([2]; per os 206 μg/kg): reduced gastric pH | acid secretion ([2]; s.c. 25 μg/kg): elevated acid secretion | gastric pH ([2]; s.c. 25 μg/kg): reduced gastric pH

CSCC[C@H](NC(=O)[C@H](Cc1c[nH]c2ccccc12)NC(=O)CCNC(=O)OC(C)(C)C)C(=O)N[C@@H](CC(=O)O)C(=O)N[C@@H](Cc1ccccc1)C(N)=O [^3H-PG]
radioactivity in systemic circulation ([3]; 5 min): 748×10^3 CPM | Radioactivity in systemic circulation % of Total Radioactivity/Dose ([3]; 5 min following oral administration): 1.43% | radioactivity in systemic circulation ([3]; 15 min): 982×10^3 CPM | Radioactivity in systemic circulation % of Total Radioactivity/Dose ([3]; 15 min following oral administration): 1.67% | radioactivity in systemic circulation ([3]; 30 min): 832×10^3 CPM | Radioactivity in systemic circulation % of Total Radioactivity/Dose ([3]; 30 min following oral administration): 1.42% | share of total orally administered radioactivity that entered the systemic circulation ([3]; oral 50 μg/kg (50×10^6 CPM), over 5-30 min): approximately 1.5%
